Test results published in US20060088471A1, “Compounds for enzyme inhibition” (Proteolix, Inc., priority 2004, published 2006).
Blank lines part the entries; values can stand above or below the compound they belong to.

Key:
[1] = molecular target: human 20S proteasome (hu20S) (Homo sapiens, UniProt P28074); test: Human 20S chymotryptic activity, Suc-LLVY-AMC cleavage; format: biochemical; conditions: for Human 20S Chymotryptic Activity kinact./Ki: 10 μM Suc-LLVY-AMC, 1 nM hu20S, 20 mM Tris pH 8.0, 0.5 mM EDTA, 0.03% SDS, 5% DMSO; for IC50 / kinact/KI: Suc-LLVY-AMC substrate; for IC50: read-out: Human 20S Chymotryptic Activity Vf IC50; for kinact/KI: read-out: Human 20S Chymotryptic Activity kobs/[I]
Description: Proteasome activity was measured via LLVY-AMC cleavage. Fluorescence was measured using the excitation wavelength of 340 nm and an emission wavelength of 465 nm. The assay was carried out in 20 mM Tris, pH 8.0, 0.5 mM EDTA, 0.03% SDS buffer with 5% DMSO.
(§1) The ability of Inhibitor 1 to inhibit the proteolytic activity of the human 20S proteasome (hu20S) both in vitro and in cells was tested using the fluorescent substrate for the chymotryptic-like activity of the proteasome, Suc-LLVY-AMC as shown in FIG. 1 and Table 1. Fluorescence was measured using the excitation wavelength of 340 nm and an emission wavelength of 465 nm. […] The assay was carried out in 20 mM Tris, pH 8.0, 0.5 mM EDTA, 0.03% SDS buffer with 5% DMSO.

[2] = tested on: chymotryptic-like activity of the proteasome in 8226 cells; test: Cell chymotryptic activity in 8226 cells; format: cell-based, human; conditions: 1 hr
Description: as §1

8226 cells = test: Cell viability, 8226; format: cell-based; conditions: 24 hr
[3] = molecular target: purified human 20S proteasome (Homo sapiens, UniProt P28074); test: Binding to the proteasome via fluorescence polarization; conditions: 2 nM inhibitor
Description: Fluorescence was measured using the excitation wavelength of 485 nm and an emission wavelength of 535 nm.
2 nM of Inhibitor 1 was incubated with a serial dilution of purified human 20S proteasome (from 400 pM to 40 nM) in a 20 mM Tris, pH 8.0, 0.5 mM EDTA, 0.03% SDS buffer and was allowed to bind to the proteasome during an incubation at room temperature as shown in FIG. 2. Fluorescence polarization was measured by exciting the samples at 485 nm and detecting the emitted fluorescence at 535 nm in a microwell plate in a fluorimeter capable of measuring fluorescence polarization (Tecan GENios Pro). […] When the concentration of human 20S was low (free Inhibitor 1), the mP was about 40 millipolarization units (mP). The fluorescence polarization at high concentrations of human 20S (bound Inhibitor 1) was about 110 mP.

[4] = molecular target: β5 subunit of human 20S or whole blood lysate (Homo sapiens, UniProt P28074); test: Streptavidin gel shift assay compared with chymotryptic substrate cleavage assay; format: biochemical; conditions: probe Inhibitor 3
Description: Human 20S (50 nM) or whole blood lysate (100 mg/mL) was pretreated with either DMSO or Inhibitor 4 (200 nM) for 1 h. Inhibitor 3 (1 μM) was then added. After 1 h, unbound Inhibitor 3 was removed using a spin desalting column and the resulting solution was diluted (1:10) in 1% SDS and heated at 90° C. to denature the proteins. The solution was cooled to room temperature and streptavidin (±1 μg/15 μL) was added. The inhibitor/streptavidin solution was then added to NuPAGE sample buffer at room temperature (not boiled). The sample was then loaded on NuPAGE gel and run at 150 V in a refrigerator at approximately 4° C.

HT29 cells = test: Cell viability, HT29; format: cell-based; conditions: Homo sapiens, HT-29, 72 hr
[5] = molecular target: T1, chymotryptic-like activity of the proteasome in HT29 cells (Homo sapiens, UniProt P28074); test: Cell chymotryptic activity in HT29 cells; format: cell-based; conditions: 4 hr
T1 construct: endogenous in cells; host or cells: HT29 cells
Description: as §1

p53 levels = conditions: epoxomicin treatment; cited from earlier work

SMILES: CC(C)C[C@H](NC(=O)[C@H](CCc1ccccc1)NC(=O)c1ccc(C2=C3C=CC(O)C=C3Oc3cc(O)ccc32)c(C(=O)O)c1)C(=O)N[C@@H](Cc1ccccc1)C(=O)N[C@@H](CC(C)C)C(=O)[C@@]1(C)CO1 (single isomer, unassigned) [Inhibitor 1]
Human 20S Chymotryptic Activity kinact./Ki [1]: 27,000 M^-1sec^-1
IC50 [1]: 9.4 nM
kinact/KI [1]: 23000 M⁻¹ s⁻¹
IC50 [2]: 340 nM
IC50 (8226 cells): 191 nM
Fluorescence polarization, bound Inhibitor 1 ([3]; high concentrations of human 20S): about 110 mP
Fluorescence polarization, free Inhibitor 1 ([3]; low concentration of human 20S): about 40 mP

Dose response: gel shift assay versus chymotryptic substrate cleavage assay [4]: comparable IC50 values
SMILES: CC(C)C[C@H](NC(=O)[C@H](CCc1ccccc1)NC(=O)CN1CCOCC1)C(=O)N[C@@H](Cc1ccccc1)C(=O)N[C@@H](CC(C)C)C(=O)[C@@]1(C)CO1 [Inhibitor 4]

SMILES: CC(=O)N[C@@H](CCc1ccccc1)C(=O)N[C@@H](CC(C)C)C(=O)N[C@@H](Cc1ccccc1)C(=O)N[C@@H](CC(C)C)C(=O)[C@@]1(C)CO1 [YU101]
Human 20S Chymotryptic Activity kinact./Ki [1]: 105,000 M^-1sec^-1
IC50 [1]: 2 nM
kinact/KI [1]: 93500 M⁻¹ s⁻¹
IC50 [2]: 7.3 nM
IC50 (8226 cells): 5 nM
IC50 (HT29 cells): 6.8 nM
IC50 [5]: 3.3 nM

SMILES: CC[C@H](C)[C@H](NC(=O)[C@H]([C@@H](C)CC)N(C)C(C)=O)C(=O)N[C@H](C(=O)N[C@@H](CC(C)C)C(=O)[C@@]1(C)CO1)[C@@H](C)O [epoxomicin]
p53 levels stabilized (p53 levels): over 50 fold
